Our source for the TGI and GI50 values is PubChem BioAssay (NCI).

Holding throughout (assay): growth of human tumour cells (NCI), 48 h
Assay [1] concerns 786-0 renal.
Assay [2] has as its system A549 NSCLC.
Assay [3] relates to DMS 114 small cell lung.
For assay [4], the system named is DMS 273 small cell lung.
Assay [5] has as its system KM12 colon.
The test system of assay [6] is KM20L2 colon.
For assay [7], the system named is NCI-H226 lung.
Assay [8] has as its system SF-268 CNS.
Assay [9] concerns UACC-62 melanoma.
The test system of assay [10] is COLO 205 colon.
Assay [11] relates to DU-145 prostate.
In assay [12] the test system is MDA-N.

Values joined by “and” are separate entries in the source; they are usually repeats but may differ in a detail not shown here. Equal values may be shown once.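 Grown in 96-well plates, cells were treated for 48 hours with each compound at five concentrations. Insufficient inhibition: endpoint recorded as highest concentration tested. GI50 marks 50% less growth. Definition used: TGI = concentration required for complete inhibition of growth.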

In the case of `C[n+]1c2ccccc2c(/C=N\NS(=O)(=O)c2ccc(Cl)cc2)c2ccccc21`, the TGI in assay [1], in [2], in assay [3], in assay [4], in assay [5] and in assay [6] was greater than 100 µM in each case. Also, the TGI in assay [7], in [8] and in [9] was greater than 100 µM throughout.

For `O=[N+]([O-])c1ccc([N+]2=NC(c3ccccc3)=NN(c3ccccc3)C2)cc1`, the TGI was greater than 100 µM in assay [1]; greater than 100 µM in [2]; greater than 100 µM in assay [10]; 94.1 µM in assay [3]; greater than 100 µM in assay [4]; greater than 100 µM in [5]. Moreover, the TGI in [6], in assay [7], in [8] and in assay [9] was greater than 100 µM each time.

For `CN(C)c1ccc(/C=C/C(=O)O)cc1`, the TGI in [2], in assay [10], in [3], in [5], in [6] and in [7] was greater than 100 µM throughout. Moreover, the TGI in assay [8] and in [9] was greater than 100 µM each time.

Take `CCN(CC)CCOc1ccc(C(O)(Cc2ccc(OC)cc2)c2ccccc2)cc1` (stereo unspecified): the TGI in assay [1] turned out to be 32.3 µM; in [2], 48.5 µM; in assay [10] it was 24.9 µM; in assay [3], 31.1 µM; in [4] it was 28.3 µM; in assay [5], 36.2 µM. Also, the TGI turned out to be 9.27 µM in assay [6], 77.5 µM in [7], 52 µM in assay [8] and 31 µM in assay [9].

`O=C(CSc1nnc(-c2ccc(N=Cc3ccc(Cl)cc3)cc2)o1)Nc1ccc([N+](=O)[O-])cc1`: the TGI is 36.1 µM in [1]; greater than 100 µM in [2]; greater than 100 µM in assay [10]; 32.9 µM in assay [3]; 30.4 µM in assay [4]; 73.5 µM in [6]. For the same compound, the TGI in assay [7] came out at 48.6 µM; in assay [8] it was 46.1 µM; in assay [9], 42.4 µM.

On to `COc1cccc(-c2nccc3c(OCc4ccccc4)c(OC)c(OC)cc23)c1`, for which the TGI in assay [2], in assay [10], in assay [3], in assay [4], in [5] and in assay [6] was greater than 100 µM in each case. Besides, the TGI in assay [7], in assay [8] and in assay [9] was greater than 100 µM each time.

On to `N#CC[N+]1(Cc2ccccn2)CCCC1`, for which the TGI in [1], in assay [2], in assay [10], in assay [11], in assay [5] and in assay [12] was greater than 100 µM throughout. Also, the TGI in assay [7], in assay [8] and in assay [9] was greater than 100 µM in each case.

For the compound `O=[N+]([O-])c1cccc(Cl)c1Oc1ccc(S(=O)(=O)/N=C(\NO)Nc2ccc(Cl)cc2)cc1`, the TGI in assay [1] was 25.7 µM; in assay [2], 28.7 µM; in [10] it was 31 µM; in assay [11], 30 µM; in [5], 31.2 µM; in [12], 26 µM. Besides, the TGI in assay [7] was 44.4 µM; in [8], 28 µM; in [9], 25.5 µM.

`Cn1ccnc1CCc1ccc(Cl)c(Cl)c1`: the TGI in assay [1], in [2], in assay [10], in [3], in [4] and in assay [5] was greater than 100 µM throughout. Further, the TGI in assay [6], in assay [7], in [8] and in [9] was greater than 100 µM throughout.

Take `O=C(C(Cl)=C(N1CCCCC1)N1CCCCC1)C(Cl)Cl`: the TGI in assay [1], in assay [2], in [10], in [11], in [5] and in assay [12] was greater than 100 µM each time. In addition, the TGI in assay [7], in assay [8] and in [9] was greater than 100 µM each time.

For `CCN(CC)CCOC(=O)Cc1cccc2c(=O)cc(-c3ccccc3)oc12`, the TGI is 62.5 µM in assay [1]; 62.5 µM and > 209 µM in assay [2]; 137 µM in assay [3]; greater than 625 µM in assay [4]; 54.6 µM in [11]; 62.5 µM and > 165 µM in assay [5]. In addition, the TGI in assay [6] was greater than 214 µM; in assay [12], 62.5 µM; in assay [7] it was 62.5 µM and > 129 µM; in assay [8], 62.5 µM and > 165 µM; in assay [9] it was 62.5 µM and > 154 µM. For the same compound, the GI50 in [2] was 57.4 µM; in [10] it was 439 µM; in assay [5], 83.5 µM; in [7] it was 50.7 µM; in [9], 39.5 µM.

For the compound `O=C1CS[C@@](CC(c2ccc(Cl)cc2)c2ccc(Cl)cc2)(c2ccc(Cl)cc2)N1`, the TGI in assay [1] is 71.2 µM; in assay [2], greater than 100 µM; in assay [10], 17.9 µM; in assay [11] it was greater than 100 µM; in assay [5] it was greater than 100 µM; in assay [12], greater than 100 µM. For the same compound, the TGI in assay [7] is 42.2 µM; in [8], greater than 100 µM; in assay [9] it was 63.1 µM.

For `CCCc1nnc2sc(COc3cc(Cl)c(OCc4nn5c(CCC)nnc5s4)cc3Cl)nn12`, the TGI in assay [1], in assay [2], in assay [10], in [11], in assay [5] and in [12] was greater than 100 µM in each case. Also, the TGI in [7], in assay [8] and in assay [9] was greater than 100 µM throughout.

`Cc1c(O)c(OC2OC(CO)C(O)C(O)C2O)cc2c1C=C[C@@H]1[C@@]2(C)C(=O)C[C@]2(C)[C@@H]([C@@](C)(O)C(=O)CCC(C)(C)O)[C@H](O)C[C@@]12C` (stereo partly specified): the TGI was 74.3 µM in [1]; 83 µM in assay [2]; greater than 100 µM in assay [10]; 56.6 µM in assay [11]; 66.6 µM in assay [5]; 77.5 µM in assay [12]. The TGI in [7] amounted to 62.7 µM; in assay [8], 83.1 µM; in [9], 33.5 µM.

Consider `COC1=C2C=[N+](C)C3C(=C2C=CC1OC)Cc1cc2c(cc13)OCO2` (stereo unspecified), for which the TGI in assay [1] was 29.6 µM; in assay [2] it was 32.4 µM; in assay [10] it was 18.4 µM; in assay [11] it was 27.5 µM; in assay [5], 10.4 µM; in [12], 23.6 µM. Besides, the TGI is 38.4 µM in assay [7], 20.3 µM in assay [8] and 21.6 µM in assay [9].

Regarding `NC(=Nc1ccccc1)c1ccccc1N`, the TGI in assay [1], in [2], in assay [10], in assay [11], in [5] and in [12] was greater than 100 µM in each case. Further, the TGI in assay [7], in assay [8] and in assay [9] was greater than 100 µM in each case.

Take `Cc1cc2oc(C)c(S(=O)(=O)NC(=O)Nc3ccc(Cl)cc3)c(=O)c2c(=O)o1`: the TGI in [1], in assay [2], in assay [10], in assay [11], in [5] and in assay [12] was greater than 100 µM throughout. In addition, the TGI in assay [7], in [8] and in assay [9] was greater than 100 µM each time.

As for `CC(=O)OC(C)(C)CCC(=O)[C@](C)(O)[C@H]1[C@H](O)C[C@@]2(C)[C@@H]3CC=C4C(C)=C(OC5OC(CO)C(O)C(O)C5O)C(=O)C[C@@H]4[C@]3(C)C(=O)C[C@]12C` (stereo partly specified), the TGI in [1], in [2], in assay [10], in assay [11], in assay [5] and in assay [12] was greater than 100 µM throughout. The TGI in assay [7], in assay [8] and in [9] was greater than 100 µM each time.

Take `COc1c2ccsc2c(OC)c2ccsc12`: the TGI in [1], in [2], in [10], in assay [11], in [5] and in [12] was greater than 100 µM each time. Moreover, the TGI in assay [7], in assay [8] and in assay [9] was greater than 100 µM each time.

Turning to `CCOC(=O)C(=CN1CCNC1=S)C(=O)OCC`, the TGI in assay [1], in assay [2], in assay [10], in assay [11], in assay [5] and in [12] was greater than 100 µM each time. Also, the TGI in [7], in assay [8] and in assay [9] was greater than 100 µM in each case. Moreover, the GI50 in [5] and in [8] was greater than 100 µM in each case.
